How the values were obtained:
[1] = target: T1, PsiM (Psilocybe cubensis, UniProt P0DPA9); assay: isothermal titration calorimetry; assay type: binding
T1 construct: full length, E. coli; Crystals: pJF45, His6 cut off by thrombin, vector-derived TEV site kept at N-terminus; Wild-type ITC and activity: His6-tagged without thrombin/TEV sites (pFB13); N247M: made from pJF45 template in pET-28a

[2] = target: T1, PsiM; assay: UHPLC-MS methyltransferase assay, Michaelis-Menten; assay type: biochemical; settings: 1 mM SAM, 50 mM Tris pH 8.4, 28 °C; first methyl transfer
[3] = system: CNCCc1c[nH]c2cccc(OP(=O)(O)O)c12; assay: UHPLC-MS methyltransferase assay, Michaelis-Menten; assay type: biochemical, Psilocybe cubensis; settings: 1 mM SAM, 50 mM Tris pH 8.4, 28 °C, second methyl transfer

Compound	Kd [1]	Km [2]	Km [3]	kcat [3]
Nc1ncnc2c1ncn2[C@@H]1O[C@H](CSCC[C@H](N)C(=O)O)[C@@H](O)[C@H]1O [SAH]	66 ± 49 µM	–	–	–
CNCCc1c[nH]c2cccc(OP(=O)(O)O)c12 [baeocystin]	77.2 ± 3.5 µM	–	–	–
NCCc1c[nH]c2cccc(OP(=O)(O)O)c12 [norbaeocystin]	35.7 ± 5.4 µM	575 ± 100 µM	–	–
PsiM (Psilocybe cubensis)	–	–	492 ± 154 µM	0.001 ± 0.00017 s⁻¹

From publication PMC10978996 (Nature Communications, 2024)
